Source: patent US12371432B2, “Haloallylamine compounds and application thereof” (TransThera Sciences (Nanjing), Inc., priority 2019, dated 2025)
Where a name gives a salt, the structure may show the parent alone.

Tests used:
[1] = molecular target: T1, rhVAP-1 (Homo sapiens, UniProt Q16853); assay: Inhibitory activity against rhVAP-1 enzyme (Biological Example 2); type: biochemical; conditions: Table 2; benzylamine substrate, Amplex Red/HRP
T1 construct: purchased PeproTech
T1 sequence (Q16853 27-763 limits assumed): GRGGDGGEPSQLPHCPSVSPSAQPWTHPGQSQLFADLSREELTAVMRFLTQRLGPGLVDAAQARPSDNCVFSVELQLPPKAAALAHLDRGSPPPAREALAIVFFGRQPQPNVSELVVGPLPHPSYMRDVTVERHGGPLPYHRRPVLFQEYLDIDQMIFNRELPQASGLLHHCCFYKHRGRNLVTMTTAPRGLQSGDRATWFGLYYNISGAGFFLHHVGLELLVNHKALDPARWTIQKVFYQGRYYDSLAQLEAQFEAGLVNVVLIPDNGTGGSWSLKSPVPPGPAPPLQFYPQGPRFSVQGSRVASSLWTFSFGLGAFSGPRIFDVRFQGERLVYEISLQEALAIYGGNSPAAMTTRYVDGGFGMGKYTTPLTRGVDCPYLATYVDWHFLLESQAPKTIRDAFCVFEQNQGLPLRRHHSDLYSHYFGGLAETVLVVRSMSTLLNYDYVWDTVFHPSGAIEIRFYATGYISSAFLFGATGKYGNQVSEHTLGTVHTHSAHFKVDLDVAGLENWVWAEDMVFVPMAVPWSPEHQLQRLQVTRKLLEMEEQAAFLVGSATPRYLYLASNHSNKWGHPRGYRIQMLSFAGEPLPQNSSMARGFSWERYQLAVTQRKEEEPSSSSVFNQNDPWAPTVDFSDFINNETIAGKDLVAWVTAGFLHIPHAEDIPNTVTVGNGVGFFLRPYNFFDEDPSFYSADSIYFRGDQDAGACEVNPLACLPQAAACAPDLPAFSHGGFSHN
Description: 1. Inhibitory Activity of Compounds Against rhVAP-1 Enzyme
(§1) (1) Instrument, Consumable and Reagent
Microplate reader (Perkin Elmer, Nivo 5S), black unclear-bottom 96-well plate (Corning) and rhVAP-1 (PeproTech)
(§2) (2) Preparation of Concentration Gradient Compound Solutions
(§3) An appropriate amount of the compound to be tested was taken, dissolved in DMSO to 10 mM and then stored. Before the study, an appropriate amount of mother liquor of the 10 mM compound to be tested was taken and gradiently diluted 3-fold with DMSO, 10 concentration gradients in total. Each concentration gradient was then diluted 100-fold with 0.1 M of PBS.
(§4) (3) Preparation of Enzyme Solutions
An appropriate amount of protein diluent was added into rhVAP-1 powder, obtaining 1 mg/mL of mother liquor for storage. Before the study, PBS was used to carry out dilution to obtain enzyme solutions of 4× concentrations.
(§5) (4) Preparation of Substrate Mixtures of 2× Concentrations
(§6) An appropriate amount of benzylamine was weighed and dissolved with PBS to obtain 200 mM of benzylamine solution. The benzylamine solution was added with 2 mM of Amplex Red mother liquor and 500 U/mL of HRP mother liquor and diluted with PBS to obtain substrate mixtures of 2× concentrations.
(§7) 10 μL compound solutions of different concentrations, 25 μL rhVAP-1 enzyme solutions of 4× concentrations and 15 μL of PBS were first added into a 96-well plate, shaken to be mixed uniformly and then incubated at 37° C. for 30 min. 50 μL substrate mixtures of 2× concentrations were then added into each well, and the microplate reader was immediately used to perform detection with 580 nm (20 nm) exciting light and 620 nm (10 nm) emission light for 5 min each time, 30 min in total. The inhibition rate was calculated according to the following formula: V (RFU/min)=(Ft (RFU)−F0 (RFU))/(time(min)) Inhibition rate (%)=100%−Vcmpd (RFU/min)/Vmax (RFU/min)×100%
(§8) V: fluorescence change rate; Ft: fluorescence reading at time point t; F0: initial fluorescence reading; Time: duration t; Vcmpd: fluorescence change rate of tested compound; Vmax: Max hole fluorescence change rate.
(§9) (6) Fitting of Dose-Response Curve
(§10) With the log value of concentration as the X axis and the percent inhibition rate as the Y axis, the log (inhibitor) vs. response-variable slope of analysis software GraphPad Prism 5 was used to fit a dose-response curve, thus obtaining the IC50 value of activity of each compound against the enzyme.

[2] = molecular target: T2, rhAOC1 (Homo sapiens, UniProt P19801); assay: Selectivity against rhAOC1 enzyme (Biological Example 2); type: biochemical; conditions: Table 2; histamine substrate, Amplex Red/HRP
T2 construct: purchased R&D
T2 sequence (P19801 20-751): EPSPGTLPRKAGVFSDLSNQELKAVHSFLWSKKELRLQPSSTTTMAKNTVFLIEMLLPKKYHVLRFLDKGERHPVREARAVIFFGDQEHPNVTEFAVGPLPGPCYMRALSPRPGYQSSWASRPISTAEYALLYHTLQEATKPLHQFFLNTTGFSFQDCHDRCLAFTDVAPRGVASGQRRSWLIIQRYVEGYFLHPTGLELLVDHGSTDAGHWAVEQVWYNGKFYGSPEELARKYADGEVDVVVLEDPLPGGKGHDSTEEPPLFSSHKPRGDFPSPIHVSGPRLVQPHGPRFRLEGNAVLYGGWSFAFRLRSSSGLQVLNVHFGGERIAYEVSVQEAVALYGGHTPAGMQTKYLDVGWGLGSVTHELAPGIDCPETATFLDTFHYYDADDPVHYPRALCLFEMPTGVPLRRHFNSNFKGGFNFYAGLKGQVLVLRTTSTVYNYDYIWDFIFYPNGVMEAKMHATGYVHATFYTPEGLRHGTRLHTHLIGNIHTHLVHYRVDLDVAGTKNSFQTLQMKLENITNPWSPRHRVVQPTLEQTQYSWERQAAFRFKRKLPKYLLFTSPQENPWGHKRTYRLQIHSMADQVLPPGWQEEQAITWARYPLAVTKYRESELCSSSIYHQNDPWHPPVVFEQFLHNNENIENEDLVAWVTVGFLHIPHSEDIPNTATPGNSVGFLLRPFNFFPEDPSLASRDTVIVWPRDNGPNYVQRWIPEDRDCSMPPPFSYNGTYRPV
Description: 2. Selectivity of Compounds Against rhAOC1 Enzyme
as §1
Microplate reader (Perkin Elmer, Nivo 5S), black unclear-bottom 96-well plate (Corning) and rhAOC1 (R&D)
as §2
as §3, with “10-fold” for “100-fold”
as §4
An appropriate amount of rhAOC1 mother liquor with a concentration of 0.441 mg/mL was taken and diluted with an appropriate amount of 50 mM HEPES buffer solution to obtain enzyme solutions of 4× concentrations.
as §5
as §6, with “histamine” for “benzylamine”, “50 mM of HEPES buffer solution” for “PBS”, “20” for “200”
as §7, with “rhAOC1” for “rhVAP-1”, “50 mM HEPES buffer solution” for “PBS”, “detect fluorescence intensity of each well” for “perform detection”
as §8, §9, §10

**Q.** `NC/C(=C\F)Cn1cc(C(=O)NC2CC2)cn1` [Compound B4 hydrochloride, (E)-1-(2-(aminomethyl)-3-fluoroallyl)-N-cyclopropyl-1H-pyrazole-4-carboxamide] was tested. Which IC50 [1] did it give?
**A.** The IC50 was 51 nM.

**Q.** And the IC50 [2]?
**A.** The IC50 was 5930 nM.

**Q.** Which results are given for `CC(C)(C)NC(=O)c1ccn(C/C(=C/F)CN)c1` [Compound B12, (E)-1-(2-aminomethyl-3-fluoroallyl)-N-tert-butyl-1H-pyrrole-3-carboxamide]?
**A.** IC50 [1]: 83 nM; IC50 [2]: 8580 nM

**Q.** How did the IC50 [1] turn out when `CCN1Cc2cnn(C/C(=C/F)CN)c2C1=O` [Compound A31 hydrochloride, (E)-1-(2-(aminomethyl)-3-fluoroallyl)-5-ethyl-4,5-dihydropyrrolo[3,4-c]pyrazol-6(1H)-one] was run?
**A.** The IC50 was 53 nM.

**Q.** And the IC50 [2]?
**A.** The IC50 was 8280 nM.

**Q.** `NC/C(=C\F)Cn1cc2c(n1)CCN(CC1CC1)C2=O` [Compound A48 hydrochloride, (E)-2-(2-(aminomethyl)-3-fluoroallyl)-5-(cyclopropylmethyl)-2,5,6,7-tetrahydro-4H-pyrazolo[4,3-c]pyridin-4-one] was tested. Which IC50 [1] did it give?
**A.** Its IC50 is 12 nM.

**Q.** Which results are given for `CC(C)(C)N1CCc2c(cnn2C/C(=C/F)CN)C1=O` [Compound A21, (E)-1-(2-(aminomethyl)-3-fluoroallyl)-5-(tert-butyl)-1,5,6,7-tetrahydro-4H-pyrazolo[4,3-c]pyridin-4-one]?
**A.** IC50 [1]: 96 nM; IC50 [2]: 4050 nM

**Q.** Which results are given for `CN(C)C(=O)c1cnn(C/C(=C/F)CN)c1` [Compound B29, (E)-1-(2-(aminomethyl)-3-fluoroallyl)-N,N-dimethyl-1H-pyrazole-4-carboxamide]?
**A.** IC50 [1]: 70 nM; IC50 [2]: 10800 nM

**Q.** How did the IC50 [1] turn out when `NC/C(=C\F)Cn1ccc2cc(C(=O)N3CCCC3)ccc21` [Compound C7 hydrochloride, (E)-(1-(2-(aminomethyl)-3-fluoroallyl)-1H-indole-5-yl)(pyrrolidin-1-yl)methanone] was run?
**A.** The IC50 was 96 nM.

**Q.** What about the IC50 [2] of the same molecule?
**A.** The IC50 was 13400 nM.

**Q.** `CC(C)(C)N1Cc2nn(C/C(=C/F)CN)cc2C1=O` [Compound A13, (E)-2-(2-(aminomethyl)-3-fluoroallyl)-5-(tert-butyl)-5,6-dihydropyrrolo[3,4-c]pyrazol-4(2H)-one] was tested. Which IC50 [1] did it give?
**A.** The IC50 was 58 nM.

**Q.** What about the IC50 [2] of the same molecule?
**A.** The IC50 was 4180 nM.

**Q.** Which IC50 [1] does the source give for `COC1CCN(C(=O)c2ccc3c(ccn3C/C(=C/F)CN)c2)CC1` [Compound C14 hydrochloride, (E)-(1-(2-(aminomethyl)-3-fluoroallyl)-1H-indol-5-yl)(4-methoxypiperidin-1-yl)methanone] here?
**A.** The IC50 was 50 nM.

**Q.** And the IC50 [2]?
**A.** The IC50 was 13100 nM.

**Q.** Which IC50 [1] does the source give for `NC/C(=C\F)Cn1cc(C(=O)Nc2ccc(Cl)cc2)cn1` [Compound B28, (E)-1-(2-aminomethyl-3-fluoroallyl)-N-4-chlorophenyl-1H-pyrazole-4-carboxamide] here?
**A.** The IC50 was 14 nM.

**Q.** What does the source list for `CC(C)N1CCc2nn(C/C(=C/F)CN)cc2C1=O` [Compound A27 hydrochloride, (E)-2-(2-(aminomethyl)-3-fluoroallyl)-5-isopropyl-2,5,6,7-tetrahydro-4H-pyrazolo[4,3-c]pyridin-4-one]?
**A.** IC50 [1]: 112 nM; IC50 [2]: 9650 nM

**Q.** How did the IC50 [1] turn out when `NC/C(=C\F)Cn1cc2c(n1)CCN(C1CCCC1)C2=O` [Compound A10 hydrochloride, (E)-2-(2-(aminomethyl)-3-fluoroallyl)-5-cyclopentyl-2,5,6,7-tetrahydro-4H-pyrazolo[4,3-c]pyridin-4-one] was run?
**A.** Its IC50 is 40 nM.

**Q.** What about the IC50 [2] of the same molecule?
**A.** Its IC50 is 1240 nM.

**Q.** Which IC50 [1] does the source give for `NC/C(=C\F)Cn1ccc2cc(C(=O)N3CCC3)ccc21` [Compound C13 hydrochloride, (E)-(1-(2-(aminomethyl)-3-fluoroallyl)-1H-indol-5-yl)(azetidin-1-yl)methanone] here?
**A.** Its IC50 is 67 nM.

**Q.** And the IC50 [2]?
**A.** Its IC50 is 1080 nM.

**Q.** Which results are given for `NC/C(=C\F)Cn1cc2c(n1)CCN(C1CCC1)C2=O` [Compound A9 hydrochloride, (E)-2-(2-(aminomethyl)-3-fluoroallyl)-5-cyclobutyl-2,5,6,7-tetrahydro-4H-pyrazolo[4,3-c]pyridin-4-one]?
**A.** IC50 [1]: 37 nM; IC50 [2]: 911 nM

**Q.** How did the IC50 [1] turn out when `CN1CCc2nn(C/C(=C/F)CN)cc2C1=O` [Compound A24 hydrochloride, (E)-2-(2-(aminomethyl)-3-fluoroallyl)-5-methyl-2,5,6,7-tetrahydro-4H-pyrazolo[4,3-c]pyridin-4-one] was run?
**A.** Its IC50 is 54 nM.

**Q.** And the IC50 [2]?
**A.** The IC50 was 4720 nM.

**Q.** With `CCNC(=O)c1cnn(C/C(=C/F)CN)c1` [Compound B2, (E)-1-(2-(aminomethyl)-3-fluoroallyl)-N-ethyl-1H-pyrazole-4-carboxamide] as the molecule, how does the IC50 [1] read?
**A.** The IC50 was 55 nM.

**Q.** What about the IC50 [2] of the same molecule?
**A.** The IC50 was 5380 nM.

**Q.** `COCCN1CCc2nn(C/C(=C/F)CN)cc2C1=O` [Compound A47 hydrochloride, (E)-2-(2-(aminomethyl)-3-fluoroallyl)-5-(2-methoxyethyl)-2,5,6,7-tetrahydro-4H-pyrazolo[4,3-c]pyridin-4-one] was tested. Which IC50 [1] did it give?
**A.** The IC50 was 20 nM.

**Q.** Which IC50 [1] does the source give for `NC/C(=C\F)Cn1cc2c(n1)CCNC2=O` [Compound A23 hydrochloride, (E)-2-(2-(aminomethyl)-3-fluoroallyl)-2,5,6,7-tetrahydro-4H-pyrazolo[4,3-c]pyridin-4-one] here?
**A.** The IC50 was 39 nM.

**Q.** Which IC50 [1] does the source give for `CCC(C)(C)N1CCc2nn(C/C(=C/F)CN)cc2C1=O` [Compound A49 hydrochloride, (E)-2-(2-(aminomethyl)-3-fluoroallyl)-5-(tert-pentyl)-2,5,6,7-tetrahydro-4H-pyrazolo[4,3-c]pyridin-4-one] here?
**A.** Its IC50 is 17 nM.
